Test results taken from US20040063770A1, “Method for treating Alzheimer's disease” (Warner-Lambert Company, priority 2000, published 2004).

Test system: Aβ secretion from CHO cells transfected with Swedish mutation Amyloid Precursor Protein (CHO-APPsw)
Assay: Aβ secretion inhibition in CHO-APPsw cells, sandwich ELISA
Format: cell-based
Settings: CHO, read-out: Effect on Aβ Secretion (Concentration) (IC50)
Experimental: This is an […] assay designed to show the ability of test compounds to […]. CHO cells transfected with human AβPP bearing the Swedish mutation AβPP(CHO-AβPPsw) were treated with a farnesyl transferase inhibitor (FTI) (e.g., compounds from Table 1). The assay was carried out as follows:
CHO cells transfected with Swedish mutation Amyloid Precursor Protein (CHO-APPsw) were maintained in Dulbecco's Modified Eagle Medium (DMEM) media supplemented with nonessential amino acids (NEAA, Gibco-BRL Company) and 10% (v/v) heat inactivated Fetal Calf Serum (Hyclone Company), penicillin and streptomycin (Gibco-BRL).
The polyclonal antibodies were purified on a protein G-Sepharose column prior to use. Biotinylated monoclonal antibody 4G8 which recognizes amino acids 17-24 of Aβ (Senetek plc, St. Louis, Mo., USA) was used as the detection antibody. Alkaline phosphatase-conjugated strepavidin (Zymed Laboratories, San Francisco, Calif., USA) was used to bind the biotinylated detection antibody followed by Attophos (JBL Scientific, St. Luis Obispo, Calif., USA), the substrate for alkaline phosphatase. Fluorescence was measured using a Cytofluor plate reader (Perseptive Biosystems, Framingham, Mass., USA) set at 450 nm excitation and 560 emission. Synthetic Aβ40 and Aβ42 peptides used for standard curves were purchased from California Peptide (Napa, Calif., USA).

Row | SMILES | IC50 [µM]
1 | O=C1CCCc2c1ccc(O[C@H](Cn1ccnc1)c1ccccc1)c2CCc1ccccc1 [Compound 1, (S) 6-(2-Imidazol-1-yl-1-phenyl-ethoxy)-5-phenethyl-3,4-dihydro-2H-naphthalen-1-one] | 0.7
2 | O=C1CCCc2cc(O[C@@H](Cn3ccnc3)c3ccccc3)ccc21 [Compound 5, (R) 6-(2-Imidazol-1-yl-1-phenyl-ethoxy)-3,4-dihydro-2H-naphthalen-1-one] | 1.5
3 | CC(C)OCc1c(OC(Cn2ccnc2)c2ccccc2)ccc2c1CCCC2=O (centres unmarked) [Compound 7, 6-(2-Imidazol-1-yl-1-phenyl-ethoxy)-5-isopropoxymethyl-3,4-dihydro-2H-naphthalen-1-one] | 37.9
4 | O=C1CCCc2c1ccc(O[C@H](Cn1ccnc1)c1ccccc1)c2CNc1ccccc1 [Compound 8, (S) 6-(2-Imidazol-1-yl-1-phenyl-ethoxy)-5-phenylaminomethyl-3,4-dihydro-2H-naphthalen-1-one] | 7.6
5 | O=C1CCCc2c1ccc(O[C@H](Cn1ccnc1)c1ccccc1)c2CCc1ccc(F)cc1 [Compound 9, (S) 6-(2-Imidazol-1-yl-1-phenyl-ethoxy)-5-[2-(4-fluorophenyl)ethyl]-3,4-dihydro-2H-naphthalen-1-one] | 4.5
6 | O=C1CCCc2c1ccc(O[C@H](Cn1ccnc1)c1ccccc1)c2CS(=O)(=O)c1ccccc1 [Compound 10, (S) 5-Benzenesulfonylmethyl-6-(2-imidazol-1-yl-1-phenyl-ethoxy)-3,4-dihydro-2H-naphthalen-1-one] | 25.4
7 | O=C1CCCc2c1ccc(O[C@H](Cn1ccnc1)c1ccccc1)c2CCc1ccccn1 [Compound 12, (S) 6-(2-Imidazol-1-yl-1-phenyl-ethoxy)-5-(2-pyridin-2-yl-ethyl)-3,4-dihydro-2H-naphthalen-1-one] | 12
8 | O=C1CCCc2c1ccc(OC(Cn1ccnc1)c1ccccc1)c2CCc1ccncc1 (centres unmarked) [Compound 13, 6-(2-Imidazol-1-yl-1-phenyl-ethoxy)-5-(2-pyridin-4-yl-ethyl)-3,4-dihydro-2H-naphthalen-1-one] | 11
9 | O=C1CCCc2c1ccc(OCCc1cncn1Cc1ccccc1)c2CCc1ccccc1 [Compound 15, 6-[2-(3-Benzyl-3H-imidazol-4-yl)-ethoxy]-5-phenethyl-3,4-dihydro-2H -naphthalen-1-one; trifluoro-acetate] | 1.5

Same assay, conditions: CHO-APPsw cells, serum free media overnight at 37° C., secreted Aβ by sandwich ELISA; read-out: Effect on Aβ Secretion (Concentration) (IC50)

Row | SMILES | IC50 [µM]
10 | O=C1/C(=C/c2cccs2)CCc2cc(OC(Cn3ccnc3)c3ccccc3)ccc21 (racemic) [Compound 3, E-(+/−)6-(2-Imidazol-1-yl-1-phenyl-ethoxy)-2-thiophen-2-ylmethylene-3,4-dihydro-2H-naphthalen-1-one] | 4.5
11 | O=C1CCCc2cc(OC(Cn3ccnc3)c3ccc(Cl)cc3)ccc21 (racemic) [Compound 4, 6-[1-(4-Chloro-phenyl)-2-imidazol-1-yl-ethoxy]-3,4-dihydro-2H-napththalen-1-one racemic] | 25
12 | O=C1CCC(c2ccccc2)c2cc(OC(Cn3ccnc3)c3ccccc3)ccc21 (racemic) [Compound 6, 6-(2-Imidazol-1-yl-1-phenyl-ethoxy)-4-phenyl-3,4-dihydro-2H-naphthalen-1-one racemic] | 3.1
13 | O=C1CCCc2cc(OCCc3c[nH]cn3)ccc21 [Compound 2, 6-[2-(1H-Imidazol-4-yl)-ethoxy]-3,4-dihydro-2H-naphthalen-1-one] | 7.6
14 | O=C1CCCc2c1ccc(S[C@H](Cn1ccnc1)c1ccccc1)c2CCc1ccccc1 [Compound 11, (S) 6-(2-Imidazol-1-yl-1-phenyl-ethylsulfanyl)-5-phenethyl-3,4-dihydro-2H-naphthalen-1-one] | 1.5
15 | O=C(O)CCC(Oc1ccc2c(c1CCc1ccccc1)CCCC2=O)c1ccccc1 (centres unmarked) [Compound 14, 4-(5-Oxo-1-phenethyl-5,6,7,8-tetrahydro-naphthalen-2-yloxy)-4-phenyl-butyric acid] | 13.8
16 | CC(C)(CNC(=O)CN(Cc1ccc(OCc2ccccc2)cc1)C(=O)[C@H](Cc1cnc[nH]1)NC(=O)OCc1ccccc1)c1ccccc1 [Compound 16, (S) [1-{(4-Benzyloxy-benzyl)-[(2-methyl-2-phenyl-propycarbamoyl)-methyl]-carbamoyl}-2-(3H-imidazol-4-yl)-ethyl]-carbamic acid benzyl ester] | 50
17 | Cc1ccc(CN(CC(=O)NCC2(c3ccccc3)CCC2)C(=O)[C@H](Cc2c[nH]cn2)NC(=O)OCc2ccccc2)cc1 [Compound 17, (S) [2-(1H-Imidazol-4-yl)-1-((4-methyl-benzyl)-{[(1-phenyl-cyclobutylmethyl)-carbamoyl]-methyl}-carbamoyl)-ethyl]-carbamic acid benzyl ester] | 10
18 | CN1C(=O)CC(c2cccc(Cl)c2)c2cc(C(Nc3cncn3C)c3ccc(Cl)cc3)ccc21 (centres unmarked) [Compound 18, 1-Methyl-4-(3-chlorophenyl)-6-[(4-chlorophenyl)-(1-methylimidazol-5-yl)aminomethyl]-2,3-dihydroquinolin-2-one] | 6
19 | O=C(CN(Cc1ccc(OCc2ccccc2)cc1)C(=O)[C@H](Cc1c[nH]cn1)NC(=O)OCc1ccccc1)NCCOCc1ccccc1 [Compound 19, (S) [1-{(4-Benzyloxy-benzyl)-[(2-benzyloxy-ethylcarbamoyl)-methyl]-carbamoyl}-2-(1H-imidazol-4-yl)ethyl]-carbamic acid benzyl ester] | 10

Same assay, conditions: transfected CHO cells treated with 10 μM compound

Row | SMILES | fold decrease in secreted Aβ [fold]
20 | O=C1CCCc2c1ccc(O[C@H](Cn1ccnc1)c1ccccc1)c2CCc1ccccc1 [Compound 1, (S) 6-(2-Imidazol-1-yl-1-phenyl-ethoxy)-5-phenethyl-3,4-dihydro-2H-naphthalen-1-one] | 6.5
